Measurements taken from patent publication US20210244720A1, “Therapeutic Tyrosine Kinase Inhibitors for Relapsing Multiple Sclerosis (RMS)” (Genzyme Corporation, priority 2020, published 2021).

Legend:
[1] = Pharmacokinetics in RMS patients, fed versus fasting status; format: in vivo, human; settings: RMS patients of the Phase 2b study
Protocol: An additional PK sample is collected 3 hours post-dose (±0.5 hour) at visits during Weeks 4 and 12 for all participants in both cohorts. Data of the most recent meal prior to PK sampling are noted in the eCRF.
Additional PK parameters such as Cmax, […], and AUC at steady state are estimated using a population PK approach.
Samples from the two groups were obtained and anaylzed to evaluate pharmacokinetics parameters as described in Example 1.10 above.

CYP3A = assay: Preclinical drug metabolism studies, CYP3A; format: in vitro ADME
From the text: (§1) See Table 12 for the list of drugs not to be used.

CYP2C8 = molecular target: T1, CYP2C8 (Homo sapiens, UniProt P10632); assay: Preclinical drug metabolism studies, CYP2C8; format: in vitro ADME
T1 sequence (P10632 1-490): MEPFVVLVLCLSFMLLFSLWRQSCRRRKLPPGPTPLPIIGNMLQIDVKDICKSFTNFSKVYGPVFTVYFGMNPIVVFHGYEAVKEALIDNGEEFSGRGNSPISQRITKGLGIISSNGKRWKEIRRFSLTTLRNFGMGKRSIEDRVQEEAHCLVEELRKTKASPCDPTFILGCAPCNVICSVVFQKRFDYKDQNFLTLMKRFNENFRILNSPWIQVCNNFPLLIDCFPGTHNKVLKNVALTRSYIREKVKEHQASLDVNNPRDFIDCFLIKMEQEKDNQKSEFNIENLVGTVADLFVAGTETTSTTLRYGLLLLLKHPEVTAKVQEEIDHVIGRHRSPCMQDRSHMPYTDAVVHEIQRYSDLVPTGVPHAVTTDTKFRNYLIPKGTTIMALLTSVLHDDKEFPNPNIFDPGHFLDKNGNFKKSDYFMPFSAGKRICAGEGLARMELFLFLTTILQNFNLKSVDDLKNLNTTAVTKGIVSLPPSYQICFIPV
From the text: as §1

[2] = test system: RGS1 mRNA in naive mouse microglia; assay: Naive primary mouse microglia, RGS1 quantitative Real time PCR; format: cell-based; settings: 2.5 μM, 6 and 24 hours
Protocol: Primary mouse microglia were prepared from postnatal mice as described above, and were treated with 2.5 μM of the BTKi inhibitor for 6 and 24 hours. RNA was isolated and was analyzed by quantitative Real time PCR (Taqman, Thermo Fisher).

RGS1 mRNA in brain = assay: In vivo mouse study, brain RGS1 Real-time PCR; settings: naive mice, oral, once a day for 5 days, 0.6, 6, and 24 mg/kg
Protocol: Mice were sacrificed on day 5, 1 h post-final dose, and PBS perfused before brain was isolated. RNA was isolated from brain using the Rneasy Lipid tissue RNA isolation kid (Qiagen). RGS1 was quantified using Real-time PCR and Taqman probe (FIG. 6; one-way ANOVA, **p<0.01).

CD19+ B-cell counts = assay: Phase 1 absolute CD19+ B-cell counts
From the text: Dose regimen: The dose range chosen for this study is informed by several assessments.

[3] = test system: participants with relapsing multiple sclerosis (RMS); assay: Phase 2b dose-finding study in RMS: brain MRI lesion counts; settings: for New Gd-enhancing T1-hyperintense lesions: patients with 0 lesions, % / New Gd-enhancing T1-hyperintense lesions: patients with 1 lesion, % / New Gd-enhancing T1-hyperintense lesions: patients with 2 lesions, % / New Gd-enhancing T1-hyperintense lesions: patients with >=3 lesions, % / New or enlarging T2 lesions: patients with 0 lesions, % / New or enlarging T2 lesions: patients with 1 lesion, % / New or enlarging T2 lesions: patients with 2 lesions, % / New or enlarging T2 lesions: patients with >=3 lesions, % / Total Gd-enhancing T1-hyperintense lesions: patients with 0 lesions, % / Total Gd-enhancing T1-hyperintense lesions: patients with 1 lesion, % / Total Gd-enhancing T1-hyperintense lesions: patients with 2 lesions, % / Total Gd-enhancing T1-hyperintense lesions: patients with >=3 lesions, %: after 12 weeks
Protocol: People diagnosed with RMS are eligible for enrollment as long as they meet all inclusion and no exclusion criteria.
Cranial (brain) MRI with and without Gd contrast is performed. Basic MRIs are performed for all participants at all study sites and consist of T2- and T1-weighted sequences without and with Gd contrast.
New T1 Gd-enhancing hyperintense and new and enlarging T2 lesions are evaluated at each visit as per the SoA (Table 1), comparing lesion count to that from the previous MRI scan. Unless specified otherwise, the baseline brain MRI is used as the reference to assess all MRI-derived endpoints. The baseline MRI is the last MRI performed before the randomization visit. Standardized endpoint evaluation is assured by central review of brain MRI scans. Blinded central review is performed for all MRI-derived endpoints. Magnetic resonance imaging reviewers are blinded to treatment assignments and to other participant data.
The first step of this procedure tests for an efficacy signal (compared to the null hypothesis of a flat, no dose-response curve) in a procedure that controls the type 1 error. […] The second step is the Dose estimation of the dose-response curve, provided that an efficacy signal is established in the first step.
The 4-week post-randomization placebo data from Cohort 2 (i.e., Week 4 data from Cohort 2) is utilized as the placebo data at Week 12 in analysis, under the assumption of a constant rate of Gd-enhancing T1-hyperintense lesion formation if participants would be receiving placebo over 12 weeks. Participants in Cohort 2 contribute to the placebo data (at Week 4) as well as the data for 4 BTK inhibitor doses (at Week 16). […] If step 1 yields significant results, the best fitting model from the 6 predefined candidate models is chosen using the generalized Akaike information criterion (AIC).
The first step of this procedure tested for an efficacy signal (compared to the null hypothesis of a flat, no dose-response curve) in a procedure that controls the type 1 error.
The MRI assessments were excluded from the analyses if the participant was receiving systemic corticosteroids within the 30 days prior to the MRI assessment date. The 4-week post-randomization placebo data from Cohort 2 (i.e., Week 4 data from Cohort 2) was utilized as the placebo data at Week 12 in analysis under the assumption of a constant rate of Gd-enhancing T1-hyperintense lesion formation if participants were to receive placebo over 12 weeks. Participants in Cohort 2 contributed to the placebo data (at Week 4) as well as the data for 4 BTK inhibitor doses (at Week 16). The 4-week placebo run-out data from Cohort 1 was not included in the analysis. […] Test statistics and adjusted p-values were provided for all 6 candidate models.
For each secondary endpoint, a similar negative binomial model and the MCP-Mod procedure were used. As it is reasonable to assume a constant rate of lesion formation over 12 weeks under placebo treatment, the same approach as that utilized for the primary endpoint was used, i.e., using the Week 4 data in Cohort 2 as the Week 12 placebo data while accounting for within-participant correlation. Descriptive summary statistics over time were provided for each of the 4 BTK inhibitor dose groups.

C=CC(=O)N1CCC[C@@H](n2c(=O)n(-c3ccc(Oc4ccccc4)cc3)c3c(N)nccc32)C1 [the BTK inhibitor, (R)-1-(1-acryloylpiperidin-3-yl)-4-amino-3-(4-phenoxyphenyl)-1H-imidazo[4,5-c]pyridin-2(3H)-one]
median AUC, fed state compared to fasted state [1]: substantially increased
CYP3A metabolism (CYP3A): substrate
CYP2C8 metabolism (CYP2C8): substrate
RGS1 mRNA level in naive mouse microglia [2]: reduced
RGS1 mRNA expression in brain (RGS1 mRNA in brain): reduction of RGS1 mRNA expression was observed
dose at which the dose-response relationship for the CD19+ B-cell increase is maximal (CD19+ B-cell counts): approximately 30 mg once daily
New Gd-enhancing T1-hyperintense lesions: patients with 0 lesions, % ([3]; 5 mg daily): (71.0) %
New Gd-enhancing T1-hyperintense lesions: patients with 1 lesion, % ([3]; 5 mg daily): (6.5) %
New Gd-enhancing T1-hyperintense lesions: patients with 2 lesions, % ([3]; 5 mg daily): (9.7) %
New Gd-enhancing T1-hyperintense lesions: patients with >=3 lesions, % ([3]; 5 mg daily): (12.9) %
New or enlarging T2 lesions: patients with 0 lesions, % ([3]; 5 mg daily): (61.3) %
New or enlarging T2 lesions: patients with 1 lesion, % ([3]; 5 mg daily): (9.7) %
New or enlarging T2 lesions: patients with 2 lesions, % ([3]; 5 mg daily): (12.9) %
New or enlarging T2 lesions: patients with >=3 lesions, % ([3]; 5 mg daily): (16.1) %
Total Gd-enhancing T1-hyperintense lesions: patients with 0 lesions, % ([3]; 5 mg daily): (64.5) %
Total Gd-enhancing T1-hyperintense lesions: patients with 1 lesion, % ([3]; 5 mg daily): (12.9) %
Total Gd-enhancing T1-hyperintense lesions: patients with 2 lesions, % ([3]; 5 mg daily): (6.5) %
Total Gd-enhancing T1-hyperintense lesions: patients with >=3 lesions, % ([3]; 5 mg daily): (16.1) %
New Gd-enhancing T1-hyperintense lesions: patients with 0 lesions, % ([3]; 15 mg daily): (67.7) %
New Gd-enhancing T1-hyperintense lesions: patients with 1 lesion, % ([3]; 15 mg daily): (16.1) %
New Gd-enhancing T1-hyperintense lesions: patients with 2 lesions, % ([3]; 15 mg daily): (3.2) %
New Gd-enhancing T1-hyperintense lesions: patients with >=3 lesions, % ([3]; 15 mg daily): (12.9) %
New or enlarging T2 lesions: patients with 0 lesions, % ([3]; 15 mg daily): (48.4) %
New or enlarging T2 lesions: patients with 1 lesion, % ([3]; 15 mg daily): (22.6) %
New or enlarging T2 lesions: patients with 2 lesions, % ([3]; 15 mg daily): (9.7) %
New or enlarging T2 lesions: patients with >=3 lesions, % ([3]; 15 mg daily): (19.4) %
Total Gd-enhancing T1-hyperintense lesions: patients with 0 lesions, % ([3]; 15 mg daily): (64.5) %
Total Gd-enhancing T1-hyperintense lesions: patients with 1 lesion, % ([3]; 15 mg daily): (19.4) %
Total Gd-enhancing T1-hyperintense lesions: patients with >=3 lesions, % ([3]; 15 mg daily): (16.1) %
New Gd-enhancing T1-hyperintense lesions: patients with 0 lesions, % ([3]; 30 mg daily): (81.8) %
New Gd-enhancing T1-hyperintense lesions: patients with 1 lesion, % ([3]; 30 mg daily): (12.1) %
New Gd-enhancing T1-hyperintense lesions: patients with 2 lesions, % ([3]; 30 mg daily): (3.0) %
New Gd-enhancing T1-hyperintense lesions: patients with >=3 lesions, % ([3]; 30 mg daily): (3.0) %
New or enlarging T2 lesions: patients with 0 lesions, % ([3]; 30 mg daily): (72.7) %
New or enlarging T2 lesions: patients with 1 lesion, % ([3]; 30 mg daily): (15.2) %
New or enlarging T2 lesions: patients with 2 lesions, % ([3]; 30 mg daily): (3.0) %
New or enlarging T2 lesions: patients with >=3 lesions, % ([3]; 30 mg daily): (9.1) %
Total Gd-enhancing T1-hyperintense lesions: patients with 0 lesions, % ([3]; 30 mg daily): (75.8) %
Total Gd-enhancing T1-hyperintense lesions: patients with 1 lesion, % ([3]; 30 mg daily): (12.1) %
Total Gd-enhancing T1-hyperintense lesions: patients with 2 lesions, % ([3]; 30 mg daily): (6.1) %
Total Gd-enhancing T1-hyperintense lesions: patients with >=3 lesions, % ([3]; 30 mg daily): (6.1) %
New Gd-enhancing T1-hyperintense lesions: patients with 0 lesions, % ([3]; 60 mg daily): (90.3) %
New Gd-enhancing T1-hyperintense lesions: patients with 1 lesion, % ([3]; 60 mg daily): (6.5) %
New Gd-enhancing T1-hyperintense lesions: patients with 2 lesions, % ([3]; 60 mg daily): (3.2) %
New or enlarging T2 lesions: patients with 0 lesions, % ([3]; 60 mg daily): (87.1) %
New or enlarging T2 lesions: patients with 1 lesion, % ([3]; 60 mg daily): (3.2) %
New or enlarging T2 lesions: patients with 2 lesions, % ([3]; 60 mg daily): (9.7) %
Total Gd-enhancing T1-hyperintense lesions: patients with 0 lesions, % ([3]; 60 mg daily): (87.1) %
Total Gd-enhancing T1-hyperintense lesions: patients with 1 lesion, % ([3]; 60 mg daily): (3.2) %
Total Gd-enhancing T1-hyperintense lesions: patients with 2 lesions, % ([3]; 60 mg daily): (6.5) %
Total Gd-enhancing T1-hyperintense lesions: patients with >=3 lesions, % ([3]; 60 mg daily): (3.2) %
dose-response relationship, reduction in number of new active Gd-enhancing T1-hyperintense brain lesions ([3]; 5-60 mg once daily, 12 weeks): demonstrating a dose-response relationship
new Gd-enhancing T1-hyperintense lesions in patients with higher AUC ([3]; patients with higher exposure): very few or no new Gd-enhancing T1-hyperintense lesions
